Measured values taken from patent US8278455B2, “5- or 6-substituted benzimidazole derivatives as inhibitors of respiratory syncytial virus replication” (Janssen Pharmaceutica N.V., priority 2003, dated 2012).
Values belong to the compound of their own block, whether it stands above or below them.

Tested on: Respiratory Syncytial Virus
Experiment: In vitro screening for activity against Respiratory Syncytial Virus (MTT tetrazolium colorimetric assay, HeLa cells)
Assay type: cell-based
Details: protection against RSV cytopathology in HeLa cells, 7 days after infection, pEC50 = −log of EC50 in molar units; for EC50: human respiratory syncytial virus, 168 h
Text: The percent protection against cytopathology caused by viruses (antiviral activity or EC50) achieved by tested compounds and their cytotoxicity (CC50) are both calculated from dose-response curves. The selectivity of the antiviral effect is represented by the selectivity index (SI), calculated by dividing the CC50 (cytotoxic dose for 50% of the cells) by the EC50 (antiviral activity for 50% of the cells). The tables in the above experimental part list the category to which each of the prepared compounds belong. Compounds belonging to activity category “A” have an pEC50 (−log of EC50 when expressed in molar units) equal to or more than 7. Compounds belonging to activity category “B” have a pEC50 value between 6 and 7.
Automated tetrazolium-based […] assays were used for determination of EC50 and CC50 of test compounds. Flat-bottom, 96-well plastic microtiter trays were filled with 180 μl of Eagle's Basal Medium, supplemented with 5% FCS (0% for FLU) and 20 mM Hepes buffer. Subsequently, stock solutions (7.8× final test concentration) of compounds were added in 45 μl volumes to a series of triplicate wells so as to allow simultaneous evaluation of their effects on virus- and mock-infected cells. Five five-fold dilutions were made directly in the microtiter trays using a robot system. Untreated virus controls, and HeLa cell controls were included in each test. Approximately 100 TCID50 of Respiratory Syncytial Virus was added to two of the three rows in a volume of 50 μl. The same volume of medium was added to the third row to measure the cytotoxicity of the compounds at the same concentrations as those used to measure the antiviral activity. After two hours of incubation, a suspension (4×10^5 cells/ml) of HeLa cells was added to all wells in a volume of 50 μl. The cultures were incubated at 37° C. in a 5% CO2 atmosphere. Seven days after infection the cytotoxicity and the antiviral activity was examined spectrophotometrically. To each well of the microtiter tray, 25 μl of a solution of MTT (3-(4,5-dimethylthiazol-2-yl)-2,5-diphenyltetrazolium bromide) was added. The trays were further incubated at 37° C. for 2 hours, after which the medium was removed from each cup. Solubilization of the formazan crystals was achieved by adding 100 μl 2-propanol. Complete dissolution of the formazan crystals were obtained after the trays have been placed on a plate shaker for 10 min. Finally, the absorbances were read in an eight-channel computer-controlled photometer (Multiskan MCC, Flow Laboratories) at two wavelengths (540 and 690 nm). The absorbance measured at 690 nm was automatically subtracted from the absorbance at 540 nm, so as to eliminate the effects of non-specific absorption.

Structure (SMILES): Cc1ccc(O)c(Cn2c(NC3CCN(C)CC3)nc3ccc(CNc4ccc(Br)cc4C)cc32)n1 [Compound 63]
Activity: 7.3

Structure (SMILES): Cc1ccc(O)c(Cn2c(NC3CCN(C)CC3)nc3ccc(CNc4ccc(Nc5ccccc5)cc4)cc32)n1 [Compound 64]
Activity: 7.3

EC50: 0.0631 µM
Structure (SMILES): Cc1cccc(C(=O)Nc2ccc3nc(NC4CCN(C)CC4)n(Cc4nc(C)ccc4O)c3c2)c1 [Compound 65, N-[3-(3-hydroxy-6-methyl-pyridin-2-yl-methyl)-2-(1-methyl-piperidin-4-ylamino)-3H-benzoimidazol-5-yl]-3-methyl-benzamide]

Structure (SMILES): Cc1ccc(O)c(Cn2c(NC3CCN(C)CC3)nc3ccc(CNc4cccc(Oc5ccccc5)c4)cc32)n1 [Compound 66]
Activity: 7.2

Structure (SMILES): COc1ccc(NCc2ccc3nc(NC4CCN(C)CC4)n(Cc4nc(C)ccc4O)c3c2)cc1F [Compound 67]
Activity: 7.2

Structure (SMILES): Cc1ccc(O)c(Cn2c(NC3CCN(C)CC3)nc3ccc(CNc4ccc(Br)c(C)c4)cc32)n1 [Compound 68]
Activity: 7.2

Structure (SMILES): Cc1ccc(O)c(Cn2c(NC3CCN(C)CC3)nc3ccc(CNc4ccc(Br)c(F)c4)cc32)n1 [Compound 69]
Activity: 7.2

Structure (SMILES): Cc1ccc(O)c(Cn2c(NC3CCN(C)CC3)nc3ccc(CNc4ccc(Cl)cc4Cl)cc32)n1 [Compound 70]
Activity: 7.2

Structure (SMILES): Cc1ccc(O)c(Cn2c(NC3CCN(C)CC3)nc3ccc(CNc4ccc(C(F)(F)F)cc4)cc32)n1 [Compound 71]
Activity: 7.2

Structure (SMILES): CCOC(=O)c1ccccc1NCc1ccc2nc(NC3CCN(C)CC3)n(Cc3nc(C)ccc3O)c2c1 [Compound 72]
Activity: 7.1

Structure (SMILES): Cc1ccc(NCc2ccc3nc(NC4CCN(C)CC4)n(Cc4nc(C)ccc4O)c3c2)c(Cl)c1 [Compound 73]
Activity: 7.1

Structure (SMILES): CCc1cc(Br)ccc1NCc1ccc2nc(NC3CCN(C)CC3)n(Cc3nc(C)ccc3O)c2c1 [Compound 74]
Activity: 7.1

Structure (SMILES): Cc1ccc(O)c(Cn2c(NC3CCN(C)CC3)nc3ccc(CNc4c(C)cccc4C)cc32)n1 [Compound 75]
Activity: 7

Structure (SMILES): Cc1ccc(O)c(Cn2c(NC3CCN(C)CC3)nc3ccc(CNc4ccc(C(C)C)cc4)cc32)n1 [Compound 76]
Activity: 7

Structure (SMILES): Cc1ccc(O)c(Cn2c(NC3CCN(C)CC3)nc3ccc(CNc4cc(Cl)c(Cl)cc4Cl)cc32)n1 [Compound 77]
Activity: 7

EC50: 0.126 µM
Structure (SMILES): Cc1cccc(C(=O)Nc2ccc3c(c2)nc(NC2CCN(C)CC2)n3Cc2nc(C)ccc2O)c1 [Compound 78, N-[1-(3-hydroxy-6-methyl-pyridin-2-ylmethyl)-2-(1-methyl-piperidin-4-ylamino)-1H-benzoimidazol-5-yl]-3-methyl-benzamide]

Structure (SMILES): Cc1ccc(O)c(Cn2c(NC3CCN(C)CC3)nc3ccc(Cn4ccnc4)cc32)n1 [Compound 79]
Activity: 6.9

Structure (SMILES): Cc1ccc(O)c(Cn2c(NC3CCN(C)CC3)nc3ccc(CN(Cc4ccccc4)c4ccccc4)cc32)n1 [Compound 80]
Activity: 6.9

Structure (SMILES): Cc1ccc(O)c(Cn2c(NC3CCN(C)CC3)nc3ccc(CN4CCc5cc(Br)ccc54)cc32)n1 [Compound 81]
Activity: 6.9

Structure (SMILES): Cc1ccc(O)c(Cn2c(NC3CCN(C)CC3)nc3ccc(CNc4c(C)cccc4C(C)C)cc32)n1 [Compound 82]
Activity: 6.9

Structure (SMILES): Cc1ccc(O)c(Cn2c(NC3CCN(C)CC3)nc3ccc(CNc4ccc(Cl)cc4Br)cc32)n1 [Compound 83]
Activity: 6.9

Structure (SMILES): Cc1ccc(CCc2ccc3nc(NC4CCN(C)CC4)n(Cc4nc(C)ccc4O)c3c2)cc1 [Compound 84]
Activity: 6.8

Structure (SMILES): Cc1ccc(O)c(Cn2c(NC3CCN(C)CC3)nc3ccc(CN(CCO)Cc4ccccc4)cc32)n1 [Compound 85]
Activity: 6.8

Structure (SMILES): Cc1ccc(O)c(Cn2c(NC3CCN(C)CC3)nc3ccc(C(O)c4ccccc4)cc32)n1 (stereo not shown) [Compound 86]
Activity: 6.8

Structure (SMILES): Cc1ccc(O)c(Cn2c(NC3CCN(C)CC3)nc3ccc(CNc4c(C)cc(Br)cc4C)cc32)n1 [Compound 87]
Activity: 6.8

Structure (SMILES): Cc1cc(C)c(NCc2ccc3nc(NC4CCN(C)CC4)n(Cc4nc(C)ccc4O)c3c2)c(Cl)c1 [Compound 88]
Activity: 6.8

Structure (SMILES): Cc1ccc(O)c(Cn2c(NC3CCN(C)CC3)nc3ccc(CNc4ccc(Br)cc4Cl)cc32)n1 [Compound 89]
Activity: 6.8

Structure (SMILES): Cc1ccc(O)c(Cn2c(NC3CCN(C)CC3)nc3cc(NC(=O)c4ccccc4)ccc32)n1 [Compound 90]
Activity: 6.7

Structure (SMILES): Cc1ccc(O)c(Cn2c(NC3CCN(C)CC3)nc3ccc(CNc4cc(C)c(C)cc4S)cc32)n1 [Compound 91]
Activity: 6.7

Structure (SMILES): Cc1ccc(O)c(Cn2c(NC3CCN(C)CC3)nc3ccc(CO)cc32)n1 [Compound 92]
Activity: 6.6

Structure (SMILES): Cc1ccc(O)c(Cn2c(NC3CCN(C)CC3)nc3ccc(CNc4ccc(Br)c5ccccc45)cc32)n1 [Compound 94]
Activity: 6.6

Structure (SMILES): Cc1cc(C)c(NCc2ccc3nc(NC4CCN(C)CC4)n(Cc4nc(C)ccc4O)c3c2)c(C)c1 [Compound 96]
Activity: 6.6

Structure (SMILES): Cc1ccc(O)c(Cn2c(NC3CCN(C)CC3)nc3ccc(CN4CCOC(CCO)C4)cc32)n1 (stereo not shown) [Compound 97]
Activity: 6.6

Structure (SMILES): Cc1ccc(O)c(Cn2c(NC3CCN(C)CC3)nc3ccc(CN4CCOCC4)cc32)n1 [Compound 98]
Activity: 6.5

Structure (SMILES): Cc1ccc(O)c(Cn2c(NC3CCN(C)CC3)nc3ccc(/C=C/c4ccccc4)cc32)n1 [Compound 99]
Activity: 6.4

Structure (SMILES): Cc1ccc(O)c(Cn2c(NC3CCN(C)CC3)nc3cc(/C=C/c4ccccc4)ccc32)n1 [Compound 100]
Activity: 6.4

Structure (SMILES): COCCN(CCOC)Cc1ccc2nc(NC3CCN(C)CC3)n(Cc3nc(C)ccc3O)c2c1 [Compound 102]
Activity: 6.4

Structure (SMILES): Cc1cccc(/C=C/c2ccc3nc(NC4CCN(C)CC4)n(Cc4nc(C)ccc4O)c3c2)c1 [Compound 103]
Activity: 6.3

Structure (SMILES): Cc1cccc(/C=C/c2ccc3c(c2)nc(NC2CCN(C)CC2)n3Cc2nc(C)ccc2O)c1 [Compound 104]
Activity: 6.2

Structure (SMILES): Cc1ccc(O)c(Cn2c(NC3CCN(C)CC3)nc3ccc(CN(C)CCc4ccccc4)cc32)n1 [Compound 105]
Activity: 6.2

Structure (SMILES): Cc1ccc(O)c(Cn2c(NC3CCN(C)CC3)nc3ccc(NC(=O)CCc4ccccc4)cc32)n1 [Compound 106]
Activity: 6.1

Structure (SMILES): Cc1ccc(O)c(Cn2c(NC3CCN(C)CC3)nc3ccc(NC(=O)Cc4ccccc4)cc32)n1 [Compound 107]
Activity: 6.1

Structure (SMILES): Cc1ccc(O)c(Cn2c(NC3CCN(C)CC3)nc3ccc(NC(=O)Cc4ccccn4)cc32)n1 [Compound 108]
Activity: 6

Structure (SMILES): CCCCN(CCO)Cc1ccc2nc(NC3CCN(C)CC3)n(Cc3nc(C)ccc3O)c2c1 [Compound 109]
Activity: 6

Structure (SMILES): Cc1ccc(O)c(Cn2c(NC3CCN(C)CC3)nc3ccc(CNCCc4ccccc4)cc32)n1 [Compound 110]
Activity: 5.8

Structure (SMILES): CCN(CCO)Cc1ccc2nc(NC3CCN(C)CC3)n(Cc3nc(C)ccc3O)c2c1 [Compound 111]
Activity: 5.6

Structure (SMILES): Cc1ccc(O)c(Cn2c(NC3CCN(C)CC3)nc3ccc(C(=O)Nc4ccccc4)cc32)n1 [Compound 112]
Activity: 5.5

Structure (SMILES): Cc1ccc(O)c(Cn2c(NC3CCN(C)CC3)nc3cc(NC(=O)Cc4ccccn4)ccc32)n1 [Compound 113]
Activity: 5.5

Structure (SMILES): Cc1ccc(O)c(Cn2c(NC3CCN(C)CC3)nc3ccc(NC(=O)c4cccnc4)cc32)n1 [Compound 114]
Activity: 5.2

Structure (SMILES): Cc1ccc(O)c(Cn2c(NC3CCN(C)CC3)nc3cc(/C=C/C#N)ccc32)n1 [Compound 115]
Activity: 5.1

Structure (SMILES): Cc1ccc(O)c(Cn2c(NC3CCN(C)CC3)nc3ccc(CNCCN4CCOCC4)cc32)n1 [Compound 117]
Activity: 5.1

Structure (SMILES): Cc1ccc(O)c(Cn2c(NC3CCN(C)CC3)nc3cc(C(=O)NCc4ccco4)ccc32)n1 [Compound 118]
Activity: 4.9

Structure (SMILES): Cc1ccc(O)c(Cn2c(NC3CCN(C)CC3)nc3ccc(C(=O)NCc4ccco4)cc32)n1 [Compound 119]
Activity: 4.8

Structure (SMILES): Cc1ccc(O)c(Cn2c(NC3CCN(C)CC3)nc3cc(C(=O)NCCc4ccccc4)ccc32)n1 [Compound 120]
Activity: 4.6

Structure (SMILES): Cc1ccc(O)c(Cn2c(NC3CCN(C)CC3)nc3cc(CO)ccc32)n1 [Compound 122]
Activity: <4

Structure (SMILES): Cc1ccc(/C=C/c2ccc3c(c2)nc(NC2CCN(C)CC2)n3Cc2nc(C)ccc2O)cc1 [Compound 125]
Activity: <4

Structure (SMILES): Cc1ccc(O)c(Cn2c(NC3CCN(C)CC3)nc3ccc(/C=C/c4ccc(Cl)cc4)cc32)n1 [Compound 126]
Activity: <4

Structure (SMILES): Cc1ccc(O)c(Cn2c(NC3CCN(C)CC3)nc3cc(/C=C/c4ccc(Cl)cc4)ccc32)n1 [Compound 127]
Activity: <4
